Experimental data published in ChEMBL document CHEMBL1130457, “Design and synthesis of a novel class of thrombin inhibitors incorporating heterocyclic dipeptide surrogates” (Bioorg Med Chem Lett, 1997).

Tests used:
[1] = target: Plasminogen (Homo sapiens, UniProt P00747)
[2] = target: Serine protease 1 (Homo sapiens, UniProt P07477)
[3] = target: Tissue-type plasminogen activator (Homo sapiens, UniProt P00750); assay: Inhibitory concentration required to inhibit human Tissue type plasminogen activator was determined
Chain of Tissue-type plasminogen activator (P00750 whole entry): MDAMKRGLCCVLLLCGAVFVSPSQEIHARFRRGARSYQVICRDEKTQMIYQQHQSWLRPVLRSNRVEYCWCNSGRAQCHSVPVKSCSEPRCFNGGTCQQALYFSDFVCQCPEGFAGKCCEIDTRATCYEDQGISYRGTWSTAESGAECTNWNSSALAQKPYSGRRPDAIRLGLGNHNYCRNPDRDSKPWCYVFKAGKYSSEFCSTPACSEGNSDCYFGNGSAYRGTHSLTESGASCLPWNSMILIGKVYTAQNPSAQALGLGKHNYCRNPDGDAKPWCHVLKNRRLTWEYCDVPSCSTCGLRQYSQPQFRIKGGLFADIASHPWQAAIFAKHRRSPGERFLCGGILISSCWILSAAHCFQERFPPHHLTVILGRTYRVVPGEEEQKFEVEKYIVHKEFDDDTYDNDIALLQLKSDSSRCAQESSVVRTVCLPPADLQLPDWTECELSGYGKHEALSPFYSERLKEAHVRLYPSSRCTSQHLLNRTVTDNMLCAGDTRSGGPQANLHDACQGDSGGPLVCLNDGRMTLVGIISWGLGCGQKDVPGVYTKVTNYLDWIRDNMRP

[4] = target: Prothrombin (Homo sapiens, UniProt P00734)
Description: Inhibitory concentration required to inhibit human thrombin enzyme was determined

[5] = target: Coagulation factor X (Homo sapiens, UniProt P00742)
Chain of Coagulation factor X (P00742 41-179 limits assumed): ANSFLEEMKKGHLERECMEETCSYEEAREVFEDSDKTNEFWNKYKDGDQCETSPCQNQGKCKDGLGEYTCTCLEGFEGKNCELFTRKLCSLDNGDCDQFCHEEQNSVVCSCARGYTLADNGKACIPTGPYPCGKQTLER
Chain of Coagulation factor X (P00742 235-488 limits assumed): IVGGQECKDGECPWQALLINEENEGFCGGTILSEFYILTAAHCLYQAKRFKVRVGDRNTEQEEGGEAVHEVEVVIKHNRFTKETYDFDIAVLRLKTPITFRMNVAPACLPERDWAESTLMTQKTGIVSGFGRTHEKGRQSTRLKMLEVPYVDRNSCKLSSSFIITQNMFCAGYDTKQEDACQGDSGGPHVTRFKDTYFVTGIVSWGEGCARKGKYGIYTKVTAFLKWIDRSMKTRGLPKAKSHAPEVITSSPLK

Chain of Plasminogen (P00747 97-580 limits assumed): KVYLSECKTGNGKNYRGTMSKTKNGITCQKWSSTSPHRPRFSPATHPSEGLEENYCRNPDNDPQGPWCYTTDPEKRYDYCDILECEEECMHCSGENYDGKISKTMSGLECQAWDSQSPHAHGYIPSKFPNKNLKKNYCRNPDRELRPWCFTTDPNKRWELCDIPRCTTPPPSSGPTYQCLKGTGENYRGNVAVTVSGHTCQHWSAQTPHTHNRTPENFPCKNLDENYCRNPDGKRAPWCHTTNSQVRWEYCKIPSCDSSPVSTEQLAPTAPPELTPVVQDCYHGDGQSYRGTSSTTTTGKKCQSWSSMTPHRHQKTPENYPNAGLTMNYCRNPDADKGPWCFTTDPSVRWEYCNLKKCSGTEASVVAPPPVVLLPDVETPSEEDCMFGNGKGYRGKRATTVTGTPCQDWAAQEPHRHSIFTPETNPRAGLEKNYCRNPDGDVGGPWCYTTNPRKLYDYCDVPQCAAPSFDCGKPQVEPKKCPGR
Chain of Plasminogen (P00747 581-810 limits assumed): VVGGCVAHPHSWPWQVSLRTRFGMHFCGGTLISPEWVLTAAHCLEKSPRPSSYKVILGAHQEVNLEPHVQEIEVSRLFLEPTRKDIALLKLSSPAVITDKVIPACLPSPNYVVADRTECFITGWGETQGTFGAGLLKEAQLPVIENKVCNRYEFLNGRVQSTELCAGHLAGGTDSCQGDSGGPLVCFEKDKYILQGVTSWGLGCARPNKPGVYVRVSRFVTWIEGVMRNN
Chain of Serine protease 1 (P07477 whole entry): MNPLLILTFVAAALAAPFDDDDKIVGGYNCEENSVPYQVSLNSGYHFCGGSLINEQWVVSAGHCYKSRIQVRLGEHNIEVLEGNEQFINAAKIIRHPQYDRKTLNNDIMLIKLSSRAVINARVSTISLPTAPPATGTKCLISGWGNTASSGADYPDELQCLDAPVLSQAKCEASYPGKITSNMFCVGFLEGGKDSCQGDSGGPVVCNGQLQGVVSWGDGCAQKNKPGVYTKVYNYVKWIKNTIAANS

SMILES | IC50 [1] [nM] | IC50 [2] [nM] | IC50 [3] [nM] | IC50 [4] [nM] | IC50 [5] [nM]
N=C(N)N1CCC[C@H](NC(=O)CN2CCC[C@H](NS(=O)(=O)Cc3ccccc3)C2=O)C1O (stereo not given in full) | > 2500 | 791 | > 2500 | 6.2 | 2500
Cc1ccc(NS(=O)(=O)Cc2ccccc2)c(=O)n1CC(=O)N[C@H]1CCCN(C(=N)N)C1O (stereo not given in full) | > 2500 | 10.9 | > 2500 | 0.467 | 447
Cn1cc(NS(=O)(=O)Cc2ccccc2)c(=O)n(CC(=O)N[C@H]2CCCN(C(=N)N)C2O)c1=O (stereo not given in full) | > 2500 | 396 | > 2500 | 141 | 2500
Cc1ncc(NS(=O)(=O)Cc2ccccc2)c(=O)n1CC(=O)N[C@H]1CCCN(C(=N)N)C1O (stereo not given in full) | > 2500 | 160 | > 2500 | 2.32 | 905
N=C(N)N1CCC[C@H](NC(=O)Cn2cccc(NS(=O)(=O)Cc3ccccc3)c2=O)C1O (stereo not given in full) | > 2500 | 26.2 | > 2500 | 0.505 | 20.9
